# Source: patent publication US20220395549A1, “COMPOSITIONS OF THE OLEA EUROPAEA V. SYLVESTRIS WITH ANTIMICROBIAL EFFICACY” (TAPROGGE GMBH, priority 2019, published 2022)
# Tested on: S. aureus ATCC 6538
# Experiment: quantitative suspension assay of mono-substances
# Type: cell-based, Staphylococcus aureus
# Procedure: A stock solution was prepared by adding 0.1 ml methanol to 10.48 mg of hydroxytyrosol. After dissolving of the compound, the solution was quantitatively transferred into 4.9 ml water for injection (WFI), effective concentration of hydroxytyrosol: 2.0 mg/ml.
# Using the stock solution, five (5) concentrations of hydroxytyrosol in a geometric series of 2 mg hydroxytyrosol/ml to 0.125 mg hydroxytyrosol/ml were tested in a quantitative suspension assay.
# 2 ml of the stock solution and the dilutions (V1 to V4), respectively, and a methanol-solution of 2% as a positive control were inoculated with 0.1 ml of a test suspension of S. aureus ATCC 6538, adjusted to about 2.0×10^5 CFU/0.1 ml, resulting in about 100,000 CFU/ml in the individual assays.
# Samples (0.1 ml) were then taken at t 0, 12, 30, and 60 minutes as well as t 24 48, and 72 hours after inoculation and culturing at between 20-25° C., and were diluted with 0.9 ml of 0.9% NaCl solution. The samples were plated on blood agar plates, and incubated up to 5 days at between 30-35° C.
# A stock solution was prepared at a concentration of 2 mg/ml of oleocanthal. The compound was dissolved by in ethanol (99.8%) and WFI was added.
# Using the stock solution, concentrations of oleocanthal in a geometric series of 1 mg oleocanthal/ml to 0.125 mg oleocanthal/ml were tested in a quantitative suspension assay.
# 2 ml of the stock solution and the dilutions (V1 to V4), respectively, and a ethanol-solution of 2.85% as a positive control were inoculated with 0.055 ml of a test suspension of S. aureus ATCC 6538, adjusted to about 3.6×10^5 CFU/0.1 ml, resulting in about 99,000 CFU/ml in the individual assays.
# A stock solution was prepared at a concentration of 1 mg/ml of oleacin. The compound was dissolved by in ethanol (99.8%) and WFI was added.
# Using the stock solution, concentrations of oleacin at 0.25 mg oleacin/ml and 0.125 mg oleacin/ml were tested in a quantitative suspension assay.
# 2 ml of the stock solution and the dilutions (V1 and V2), respectively, and a ethanol-solution of 0.44% as a positive control were inoculated with 0.055 ml of a test suspension of S. aureus ATCC 6538, adjusted to about 3.5×10^5 CFU/0.1 ml, resulting in about 99,000 CFU/ml in the individual assays.
# A stock solution was prepared by adding 0.1 ml chloroform to 25 mg of uvaol. After dissolving of the compound, the solution was quantitatively transferred into 12.4 ml water for injection (WFI), effective concentration of uvaol: 2.0 mg/ml.
# Using the stock solution, five (5) concentrations of uvaol in a geometric series of 2 mg uvaol/ml to 0.125 mg uvaol/ml were tested in a quantitative suspension assay.
# 2 ml of the stock solution and the dilutions (V1 to V4), respectively, and a chloroform-solution of 0.8% as a positive control were inoculated with 0.1 ml of a test suspension of S. aureus ATCC 6538, adjusted to about 2.0×10^5 CFU/0.1 ml, resulting in about 100,000 CFU/ml in the individual assays.
# A stock solution was prepared by adding 0.1 ml chloroform to 10.45 mg of erythrodiol. After dissolving of the compound, the solution was quantitatively transferred into 4.9 ml water for injection (WFI), effective concentration of erythrodiol: 2.0 mg/ml.
# 2 ml of the stock solution and the dilutions (V1 to V4), respectively, and a chloroform-solution of 2% as a positive control were inoculated with 0.1 ml of a test suspension of S. aureus ATCC 6538, adjusted to about 3.6×10^5 CFU/0.1 ml, resulting in about 100.000 CFU/ml in the individual assays.
smiles,measurement,setting,value
OCCc1ccc(O)c(O)c1 [Hydroxytyrosol],Number of CFUs,"0.125 Hyd/ml, t 0 min, initial cell load 1.7 × 10^5 CFU/ml",7.0 × 10^4 CFU/ml
same,Number of CFUs,"0.125 Hyd/ml, t 12 min, initial cell load 1.7 × 10^5 CFU/ml",7.4 × 10^4 CFU/ml
same,Number of CFUs,"0.125 Hyd/ml, t 30 min, initial cell load 1.7 × 10^5 CFU/ml",7.0 × 10^4 CFU/ml
same,Number of CFUs,"0.125 Hyd/ml, t 60 min, initial cell load 1.7 × 10^5 CFU/ml",6.8 × 10^4 CFU/ml
same,Number of CFUs,"0.125 Hyd/ml, t 24 h, initial cell load 1.7 × 10^5 CFU/ml",2.8 × 10^3 CFU/ml
same,Number of CFUs,"0.125 Hyd/ml, t 48 h, initial cell load 1.7 × 10^5 CFU/ml",<100 CFU/ml
same,Number of CFUs,"0.125 Hyd/ml, t 72 h, initial cell load 1.7 × 10^5 CFU/ml",7.1 × 10^2 CFU/ml
same,Number of CFUs,"0.25 Hyd/ml, t 0 min, initial cell load 1.7 × 10^5 CFU/ml",5.7 × 10^4 CFU/ml
same,Number of CFUs,"0.25 Hyd/ml, t 12 min, initial cell load 1.7 × 10^5 CFU/ml",5.1 × 10^4 CFU/ml
same,Number of CFUs,"0.25 Hyd/ml, t 30 min, initial cell load 1.7 × 10^5 CFU/ml",5.9 × 10^4 CFU/ml
same,Number of CFUs,"0.25 Hyd/ml, t 60 min, initial cell load 1.7 × 10^5 CFU/ml",7.4 × 10^4 CFU/ml
same,Number of CFUs,"0.25 Hyd/ml, t 24 h, initial cell load 1.7 × 10^5 CFU/ml",1.4 × 10^3 CFU/ml
same,Number of CFUs,"0.25 Hyd/ml, t 48 h, initial cell load 1.7 × 10^5 CFU/ml",<100 CFU/ml
same,Number of CFUs,"0.25 Hyd/ml, t 72 h, initial cell load 1.7 × 10^5 CFU/ml",<100 CFU/ml
same,Number of CFUs,"0.5 Hyd/ml, t 0 min, initial cell load 1.7 × 10^5 CFU/ml",7.0 × 10^4 CFU/ml
same,Number of CFUs,"0.5 Hyd/ml, t 12 min, initial cell load 1.7 × 10^5 CFU/ml",6.6 × 10^4 CFU/ml
same,Number of CFUs,"0.5 Hyd/ml, t 30 min, initial cell load 1.7 × 10^5 CFU/ml",6.4 × 10^4 CFU/ml
same,Number of CFUs,"0.5 Hyd/ml, t 60 min, initial cell load 1.7 × 10^5 CFU/ml",6.1 × 10^4 CFU/ml
same,Number of CFUs,"0.5 Hyd/ml, t 24 h, initial cell load 1.7 × 10^5 CFU/ml",2.0 × 10^2 CFU/ml
same,Number of CFUs,"0.5 Hyd/ml, t 48 h, initial cell load 1.7 × 10^5 CFU/ml",<100 CFU/ml
same,Number of CFUs,"0.5 Hyd/ml, t 72 h, initial cell load 1.7 × 10^5 CFU/ml",<100 CFU/ml
same,Number of CFUs,"1.0 Hyd/ml, t 0 min, initial cell load 1.7 × 10^5 CFU/ml",6.8 × 10^4 CFU/ml
same,Number of CFUs,"1.0 Hyd/ml, t 12 min, initial cell load 1.7 × 10^5 CFU/ml",7.8 × 10^4 CFU/ml
same,Number of CFUs,"1.0 Hyd/ml, t 30 min, initial cell load 1.7 × 10^5 CFU/ml",7.4 × 10^4 CFU/ml
same,Number of CFUs,"1.0 Hyd/ml, t 60 min, initial cell load 1.7 × 10^5 CFU/ml",7.2 × 10^4 CFU/ml
same,Number of CFUs,"1.0 Hyd/ml, t 24 h, initial cell load 1.7 × 10^5 CFU/ml",<100 CFU/ml
same,Number of CFUs,"1.0 Hyd/ml, t 48 h, initial cell load 1.7 × 10^5 CFU/ml",<100 CFU/ml
same,Number of CFUs,"1.0 Hyd/ml, t 72 h, initial cell load 1.7 × 10^5 CFU/ml",<100 CFU/ml
same,Number of CFUs,"2.0 Hyd/ml, t 0 min, initial cell load 1.7 × 10^5 CFU/ml",7.0 × 10^4 CFU/ml
same,Number of CFUs,"2.0 Hyd/ml, t 12 min, initial cell load 1.7 × 10^5 CFU/ml",8.9 × 10^4 CFU/ml
same,Number of CFUs,"2.0 Hyd/ml, t 30 min, initial cell load 1.7 × 10^5 CFU/ml",5.9 × 10^4 CFU/ml
same,Number of CFUs,"2.0 Hyd/ml, t 60 min, initial cell load 1.7 × 10^5 CFU/ml",5.9 × 10^4 CFU/ml
same,Number of CFUs,"2.0 Hyd/ml, t 24 h, initial cell load 1.7 × 10^5 CFU/ml",<100 CFU/ml
same,Number of CFUs,"2.0 Hyd/ml, t 48 h, initial cell load 1.7 × 10^5 CFU/ml",<100 CFU/ml
same,Number of CFUs,"2.0 Hyd/ml, t 72 h, initial cell load 1.7 × 10^5 CFU/ml",<100 CFU/ml
C/C=C(/C=O)[C@@H](CC=O)CC(=O)OCCc1ccc(O)cc1 [oleocanthal],Number of CFUs,"0.125 Ole/ml, t 0 min, initial cell load 9.9 × 10^4 CFU/ml",2.0 × 10^4 CFU/ml
same,Number of CFUs,"0.125 Ole/ml, t 12 min, initial cell load 9.9 × 10^4 CFU/ml",1.6 × 10^4 CFU/ml
same,Number of CFUs,"0.125 Ole/ml, t 30 min, initial cell load 9.9 × 10^4 CFU/ml",1.6 × 10^4 CFU/ml
same,Number of CFUs,"0.125 Ole/ml, t 60 min, initial cell load 9.9 × 10^4 CFU/ml",1.1 × 10^4 CFU/ml
same,Number of CFUs,"0.125 Ole/ml, t 24 h, initial cell load 9.9 × 10^4 CFU/ml",5.4 × 10^3 CFU/ml
same,Number of CFUs,"0.125 Ole/ml, t 48 h, initial cell load 9.9 × 10^4 CFU/ml",<100 CFU/ml
same,Number of CFUs,"0.125 Ole/ml, t 72 h, initial cell load 9.9 × 10^4 CFU/ml",<100 CFU/ml
same,Number of CFUs,"0.25 Ole/ml, t 0 min, initial cell load 9.9 × 10^4 CFU/ml",1.7 × 10^4 CFU/ml
same,Number of CFUs,"0.25 Ole/ml, t 12 min, initial cell load 9.9 × 10^4 CFU/ml",1.8 × 10^4 CFU/ml
same,Number of CFUs,"0.25 Ole/ml, t 30 min, initial cell load 9.9 × 10^4 CFU/ml",2.0 × 10^4 CFU/ml
same,Number of CFUs,"0.25 Ole/ml, t 60 min, initial cell load 9.9 × 10^4 CFU/ml",1.6 × 10^4 CFU/ml
same,Number of CFUs,"0.25 Ole/ml, t 24 h, initial cell load 9.9 × 10^4 CFU/ml",7.2 × 10^3 CFU/ml
same,Number of CFUs,"0.25 Ole/ml, t 48 h, initial cell load 9.9 × 10^4 CFU/ml",8.3 × 10^3 CFU/ml
same,Number of CFUs,"0.25 Ole/ml, t 72 h, initial cell load 9.9 × 10^4 CFU/ml",<100 CFU/ml
same,Number of CFUs,"0.5 Ole/ml, t 0 min, initial cell load 9.9 × 10^4 CFU/ml",8.3 × 10^3 CFU/ml
same,Number of CFUs,"0.5 Ole/ml, t 12 min, initial cell load 9.9 × 10^4 CFU/ml",6.1 × 10^3 CFU/ml
same,Number of CFUs,"0.5 Ole/ml, t 30 min, initial cell load 9.9 × 10^4 CFU/ml",5.1 × 10^3 CFU/ml
same,Number of CFUs,"0.5 Ole/ml, t 60 min, initial cell load 9.9 × 10^4 CFU/ml",2.4 × 10^3 CFU/ml
same,Number of CFUs,"0.5 Ole/ml, t 24 h, initial cell load 9.9 × 10^4 CFU/ml",<100 CFU/ml
same,Number of CFUs,"0.5 Ole/ml, t 48 h, initial cell load 9.9 × 10^4 CFU/ml",<100 CFU/ml
same,Number of CFUs,"0.5 Ole/ml, t 72 h, initial cell load 9.9 × 10^4 CFU/ml",<100 CFU/ml
same,Number of CFUs,"1.0 Ole/ml, t 0 min, initial cell load 9.9 × 10^4 CFU/ml",<100 CFU/ml
same,Number of CFUs,"1.0 Ole/ml, t 12 min, initial cell load 9.9 × 10^4 CFU/ml",<100 CFU/ml
same,Number of CFUs,"1.0 Ole/ml, t 30 min, initial cell load 9.9 × 10^4 CFU/ml",<100 CFU/ml
same,Number of CFUs,"1.0 Ole/ml, t 60 min, initial cell load 9.9 × 10^4 CFU/ml",<100 CFU/ml
same,Number of CFUs,"1.0 Ole/ml, t 24 h, initial cell load 9.9 × 10^4 CFU/ml",<100 CFU/ml
same,Number of CFUs,"1.0 Ole/ml, t 48 h, initial cell load 9.9 × 10^4 CFU/ml",<100 CFU/ml
same,Number of CFUs,"1.0 Ole/ml, t 72 h, initial cell load 9.9 × 10^4 CFU/ml",<100 CFU/ml
same,Number of CFUs,"2.0 Ole/ml, t 0 min, initial cell load 9.9 × 10^4 CFU/ml",<100 CFU/ml
same,Number of CFUs,"2.0 Ole/ml, t 12 min, initial cell load 9.9 × 10^4 CFU/ml",<100 CFU/ml
same,Number of CFUs,"2.0 Ole/ml, t 30 min, initial cell load 9.9 × 10^4 CFU/ml",<100 CFU/ml
same,Number of CFUs,"2.0 Ole/ml, t 60 min, initial cell load 9.9 × 10^4 CFU/ml",<100 CFU/ml
same,Number of CFUs,"2.0 Ole/ml, t 24 h, initial cell load 9.9 × 10^4 CFU/ml",<100 CFU/ml
same,Number of CFUs,"2.0 Ole/ml, t 48 h, initial cell load 9.9 × 10^4 CFU/ml",<100 CFU/ml
same,Number of CFUs,"2.0 Ole/ml, t 72 h, initial cell load 9.9 × 10^4 CFU/ml",<100 CFU/ml
same,"antimicrobial effect, summary in words",detection limit of the assay 100 CFU/ml,immediate effect at the higher concentrations
